According to US20040219103A1, “Methods useful for the diagnosis, imaging and treatment of tumors” (priority 2003, published 2004):

Assays:
[1] = test system: JJ5 breast cancer cells; assay: Cytotoxicity (colony-forming) assay against JJ5 breast cancer cells; assay type: cell-based, human; details: 14 days
Method: The number of cells seeded was varied from 3×10^4 to 3×10^6 cells to obtain approximately 400 viable colonies/dish taking into account the plating efficiency and the expected level of cytotoxicity. Control dishes contained JJ5 breast cancer cells which were incubated with normal saline. Growth medium was added and the cells were cultured at 37° C./5% CO^2 for 14 days. The growth medium was removed and the colonies were stained with methylene blue (1% in a 1:1 mixture of ethanol and water) then washed twice. The number of colonies per dish was counted using a manual colony counter (Manostat Corp). The plating efficiency was calculated by dividing the number of colonies observed by the number of cells seeded in each dish.

[2] = test system: JJ5 breast cancer cells; assay: Growth inhibition assay against JJ5 breast cancer cells; assay type: cell-based, human; details: 4 days culture
Method: Growth medium was added and the cells were cultured at 37° C./5% CO^2 for 4 days. The cells were then recovered by trypsinization and counted in a hemocytometer. Control dishes contained cells cultured in growth medium containing ^111In-DTPA or growth medium alone.

[3] = test system: JJ5 Breast Cancer cells (EGFR); assay: Binding of EGF-^111In-labeled transferrin compound to breast cancer cells (radioligand binding, kinetics, retention); set-up: species or system human
Method: For the normal breast cell line HBL-100, 8000 EGFR/cell has been reported. The expression of EGFR in breast cancer cell lines has a reported range of 800 EGFR/cell for MCF-7 cells to 10^6 EGFR/cell for MDA-MB-468 cells. […] Utilizing the Auger electron emitter ^111In was used in the initial experiments to illustrate the utility of the invention using EGF-^111In-labeled transferrin compounds. The EGF-^111In-labeled transferrin (0.25-80 ng) was incubated with 1.5×10^6 cells/dish JJ5 Breast Cancer (prepared from BCBM JJ5) cells in 1 mL of 0.1% human serum albumin in 35 mm multiwell culture dishes at 37° C. for 30 minutes. The cells were transferred to a centrifuge tube and centrifuged. The cell pellet was separated from the supernatant and counted in a g-scintillation counter to determine bound (B) and free (F) radioactivity. Non-specific binding was determined by conducting the assay in 100 nM hEGF. […] Internalized fraction was measured by determining the proportion of radioactivity which could not be displaced from the cell surface by 100 nM hEGF. Cell-associated binding (surface-binding and intracellular accumulation) was expressed as a percentage of medium radioactivity bound per mg of cell study protein.

| Compound | cell killing ([1]; <6 pCi/cell) | growth inhibition of the JJ5 cells compared to the medium control ([2]; 3.5 pCi/cell) [%] | reduction in cell survival for JJ5 cells ([1]; 8 pCi/cell) [%] | growth inhibition of the JJ5 cells compared to the medium control ([2]; 3.4 pCi/cell) [%] | internalization by cancer cells (in words) ([3]; JJ5 cells) | number of binding sites ([3]; JJ5 cells) | binding by the breast cancer cells (kinetics, in words) ([3]; JJ5 cells, 37° C.) | time retained by the breast cancer cells ([3]; JJ5 cells, 37° C.) | affinity constant for binding to JJ5 cells ([3]; JJ5 cells, 37° C., 30 minutes) [L/mol] | ^111In radioactivity lost from the cells in vitro ([3]; over a 24 hour period at 37° C.) [%] |
| --- | --- | --- | --- | --- | --- | --- | --- | --- | --- | --- |
| [In+3].[O-]c1cccc2cccnc12.[O-]c1cccc2cccnc12.[O-]c1cccc2cccnc12 [^111In-oxine, reference compound] | greater than 99% | 91 |  |  |  |  |  |  |  |  |
| EGF-^111In-labeled transferrin compound: human EGF linked via PEG3400-biotin or peptide linker-biotin to streptavidin-transferrin, transferrin labeled with ^111In |  |  | 99 | 83 | rapidly internalized | 2.7×10^6 | rapidly bound | at least 24 hours | 8e+08 | < 8 |
